Assay results from ChEMBL document CHEMBL3046213, “Repellent, insecticidal and phytotoxic activities of isoalantolactone from Inula racemosa” (Crop Prot, 2006).

Experiments:
Sitophilus oryzae [1] = assay: Insecticidal activity against Sitophilus oryzae (rice weevil) assessed as mortality at 600 ug/g after 15 days by food poison technique relative to acetone-treated control; assay type: functional
Triticum aestivum [2] = assay: Phytotoxicity in Triticum aestivum (wheat) assessed as germination rate at 500 ug/ml pre-soaked for 30 min measured after 72 hr relative to acetone-treated control; assay type: organism-based; settings: in vivo
Sitophilus oryzae [3] = assay: Insecticidal activity against Sitophilus oryzae (rice weevil) assessed as mortality after 10 days by food poison technique; assay type: functional
Triticum aestivum [4] = assay: Phytotoxicity in Triticum aestivum (wheat) assessed as germination rate at 500 ug/ml pre-soaked for 60 min measured after 48 hr relative to acetone-treated control; assay type: organism-based; settings: in vivo
Sitophilus oryzae [5] = assay: Insecticidal activity against Sitophilus oryzae (rice weevil) assessed as mortality after 15 days by food poison technique; assay type: functional
Triticum aestivum [6] = assay: Phytotoxicity in Triticum aestivum (wheat) assessed as germination rate at 500 ug/ml pre-soaked for 30 min measured after 24 hr relative to acetone-treated control; assay type: organism-based; settings: in vivo
Triticum aestivum [7] = assay: Phytotoxicity in Triticum aestivum (wheat) assessed as germination rate at 500 ug/ml pre-soaked for 60 min measured after 24 hr relative to acetone-treated control; assay type: organism-based; settings: in vivo
Triticum aestivum [8] = assay: Phytotoxicity in Triticum aestivum (wheat) assessed as root growth at 500 ug/ml pre-soaked for 60 min measured after 96 hr relative to acetone-treated control; assay type: organism-based; settings: in vivo
Triticum aestivum [9] = assay: Phytotoxicity in Triticum aestivum (wheat) assessed as germination rate at 500 ug/ml pre-soaked for 30 min measured after 48 hr relative to acetone-treated control; assay type: organism-based; settings: in vivo
Sitophilus oryzae [10] = assay: Repellent activity against Sitophilus oryzae (rice weevil) assessed as settling responses at 100 ug/g preincubated for 12 hr prior to inoculation measured after 24 hr by food preference chamber method (reference value: 49.45 +/- 2.65 %); assay type: functional
Triticum aestivum [11] = assay: Phytotoxicity in Triticum aestivum (wheat) assessed as shoot growth at 500 ug/ml pre-soaked for 30 min measured after 96 hr relative to acetone-treated control; assay type: organism-based; settings: in vivo
Triticum aestivum [12] = assay: Phytotoxicity in Triticum aestivum (wheat) assessed as shoot growth at 500 ug/ml pre-soaked for 60 min measured after 96 hr relative to acetone-treated control; assay type: organism-based; settings: in vivo
Sitophilus oryzae [13] = assay: Insecticidal activity against Sitophilus oryzae (rice weevil) assessed as mortality at 400 ug/g after 15 days by food poison technique relative to acetone-treated control; assay type: functional
Sitophilus oryzae [14] = assay: Insecticidal activity against Sitophilus oryzae (rice weevil) assessed as mortality at 0.05 ug/g after 10 days by food poison technique relative to acetone-treated control; assay type: functional
Sitophilus oryzae [15] = assay: Insecticidal activity against Sitophilus oryzae (rice weevil) assessed as mortality at 2000 ug/g after 15 days by food poison technique relative to acetone-treated control; assay type: functional
Sitophilus oryzae [16] = assay: Repellent activity against Sitophilus oryzae (rice weevil) assessed as settling responses at 125 ug/g preincubated for 12 hr prior to inoculation measured after 24 hr by food preference chamber method (reference value: 49.45 +/- 2.65 %); assay type: functional
Triticum aestivum [17] = assay: Phytotoxicity in Triticum aestivum (wheat) assessed as root growth at 500 ug/ml pre-soaked for 60 min measured after 120 hr relative to acetone-treated control; assay type: organism-based; settings: in vivo
Sitophilus oryzae [18] = assay: Insecticidal activity against Sitophilus oryzae (rice weevil) assessed as mortality at 2000 ug/g after 20 days by food poison technique relative to acetone-treated control; assay type: functional
Sitophilus oryzae [19] = assay: Insecticidal activity against Sitophilus oryzae (rice weevil) assessed as mortality at 0.05 ug/g after 5 days by food poison technique relative to acetone-treated control; assay type: functional
Sitophilus oryzae [20] = assay: Insecticidal activity against Sitophilus oryzae (rice weevil) assessed as mortality after 20 days by food poison technique; assay type: functional
Sitophilus oryzae [21] = assay: Insecticidal activity against Sitophilus oryzae (rice weevil) assessed as mortality at 0.05 ug/g after 15 days by food poison technique relative to acetone-treated control; assay type: functional
Sitophilus oryzae [22] = assay: Insecticidal activity against Sitophilus oryzae (rice weevil) assessed as mortality at 400 ug/g after 10 days by food poison technique relative to acetone-treated control; assay type: functional
Sitophilus oryzae [23] = assay: Insecticidal activity against Sitophilus oryzae (rice weevil) assessed as mortality at 600 ug/g after 20 days by food poison technique relative to acetone-treated control; assay type: functional
Sitophilus oryzae [24] = assay: Insecticidal activity against Sitophilus oryzae (rice weevil) assessed as increase in mortality after 5 to 20 days by food poison technique; assay type: functional, organism-based
Triticum aestivum [25] = assay: Phytotoxicity in Triticum aestivum (wheat) assessed as shoot growth at 500 ug/ml pre-soaked for 30 min measured after 120 hr relative to acetone-treated control; assay type: organism-based; settings: in vivo
Triticum aestivum [26] = assay: Phytotoxicity in Triticum aestivum (wheat) assessed as root growth at 500 ug/ml pre-soaked for 30 min measured after 72 hr relative to acetone-treated control; assay type: organism-based; settings: in vivo
Triticum aestivum [27] = assay: Phytotoxicity in Triticum aestivum (wheat) assessed as shoot growth at 500 ug/ml pre-soaked for 30 min measured after 48 hr relative to acetone-treated control; assay type: organism-based; settings: in vivo
Sitophilus oryzae [28] = assay: Insecticidal activity against Sitophilus oryzae (rice weevil) assessed as mortality at 2000 ug/g after 5 days by food poison technique relative to acetone-treated control; assay type: functional
Sitophilus oryzae [29] = assay: Insecticidal activity against Sitophilus oryzae (rice weevil) assessed as mortality at 200 ug/g after 10 days by food poison technique relative to control; assay type: functional
Sitophilus oryzae [30] = assay: Insecticidal activity against Sitophilus oryzae (rice weevil) assessed as mortality at 200 ug/g after 5 days by food poison technique relative to acetone-treated control; assay type: functional

C=C1C(=O)O[C@@H]2C[C@@]3(C)CCCC(=C)[C@@H]3C[C@H]12 [ISOALANTOLACTONE]
mortality (Sitophilus oryzae [1]): 56.41%
Activity (Triticum aestivum [2]): 100%
LC50 (Sitophilus oryzae [3]): 707.21 µg/g
Activity (Triticum aestivum [4]): 76.1%
LC50 (Sitophilus oryzae [5]): 655.31 µg/g
Activity (Triticum aestivum [6]): 106.7%
Activity (Triticum aestivum [7]): 25%
Activity (Triticum aestivum [8]): 76.9%
Activity (Triticum aestivum [9]): 94%
Activity (Sitophilus oryzae [10]): 12.13%
Activity (Triticum aestivum [11]): 96%
Activity (Triticum aestivum [12]): 47.9%
mortality (Sitophilus oryzae [13]): 30.77%
mortality (Sitophilus oryzae [14]): 100%
mortality (Sitophilus oryzae [15]): 100%
Activity (Sitophilus oryzae [16]): 13.22%
Activity (Triticum aestivum [17]): 83.9%
mortality (Sitophilus oryzae [18]): 100%
mortality (Sitophilus oryzae [19]): 86.54%
LC50 (Sitophilus oryzae [20]): 610.51 µg/g
mortality (Sitophilus oryzae [21]): 100%
mortality (Sitophilus oryzae [22]): 23.81%
mortality (Sitophilus oryzae [23]): 58.97%
Activity (Sitophilus oryzae [24]): Dose-dependent effect
Activity (Triticum aestivum [25]): 100.4%
Activity (Triticum aestivum [26]): 97.4%
Activity (Triticum aestivum [27]): 100%
mortality (Sitophilus oryzae [28]): 76.19%
mortality (Sitophilus oryzae [29]): 16.67%
mortality (Sitophilus oryzae [30]): 11.9%
